US8445467B2, “Reducing risk of type 2 diabetes (T2D)” (Joslin Diabetes Center, Inc., priority 2006, dated 2013)
Several values for one entry are separate records, joined by “and”; a condition that tells them apart may be missing. Equal values may be shown once. Entries after “also recorded” stand apart in the source; their conditions may differ.

Legend:
cyclooxygenase enzymes = settings: cited from earlier work
[1] = tested on: overweight non-diabetic adults; assay: Glycemia (fasting glucose, OGTT, glycated albumin) in double-masked placebo controlled trial; format: in vivo, human
From the text: (§1) The ability of high doses of systemic salsalate to reduce systemic inflammation and improve metabolic parameters was investigated in a double-masked placebo controlled trial of 20 overweight non-diabetic adults (age: 24 yrs±1, gender 17F/3M, BMI 38 kg/m^2±2), evaluated at baseline and after one month of dally administration of oral salsalate 4 g or placebo.
Subjects were under 30 years old, and obese as defined by a body mass Index (BMI) of ≧ 30 kg/m^2 Participants were excluded for recent blood donation, change in weight of more than 5% in the preceding six months or use of medication known to alter weight, acute febrile illness, biochemical evidence of renal or hepatic dysfunction, aspirin allergy, history of gastritis or gastrointestinal bleeding, current medications known to altar glucose metabolism, or diabetes mellitus based on screening evaluation. Female participants were excluded for pregnancy, lactation, or lack of current use of a hormonal or barrier contraceptive method.
(§2) Participants were instructed to consume a standard high-carbohydrate diet (250-300 grams/day) and abstain from strenuous exercise for three days prior to undergoing, baseline and final evaluations. Subjects were additionally instructed not to alter dietary or exercise habits daring the study Blood pressure was measured twice with the patient supine for 10 minutes. Fasting lipids and cytokines were measured, and oral glucose tolerance tests (OGTT) were performed with glucose, insulin, C-peptide and free fatty acid levels measured prior to and 30, 60, 90 and 120 minutes after 75-gram glucose load. All subjects were non-diabetic based on current American Diabetes Association guidelines (Diagnosis and Classification of Diabetes Mellitus. Diabetes Care 28:S37-S42 (2005)). AUC data were calculated by triangulation. Insulin resistance was determined using homeostasis model assessment (HOMA-IR) for insulin and C-peptide as described using the modified formula: HOMA-IRC-peptide=(fasting C-peptide*fasting glucose)/22.5 See, e.g., Matthews et al, Diabetologia 28:41.2-419 (1985); Wallace et al., Diabetes Care 27; 1487-4495 (2004).
(§3) Compliance was evaluated with blood salicylate levels.
(§4) Glucose was measured by glucose oxidation, cholesterol and HDL by cholesterol esterase assay, triglycerides via hydrolysis to glycerol and FFA (Beckman Synchron CX3delta and CX9, Beckman Coulter, Brea, Calif.), and glycohemoglobin by HPLC (TOSHO 2.2™, Tosoh Bioscience, San Francisco, Calif.). Immunoassays were performed in duplicate on serum specimens by commercial assay including RIA for insulin and C-peptide (Diagnostic Systems Laboratories, Webster, Tex.), and adiponectin (Linco research, St. Charles, Mo., USA); ELISA for free fatty acids (WAKO chemicals, Richmond, Va., USA), and IL-6 and VCAM-1 (R& D Systems, Minneapolis, Minn., USA). CRP was analysed by immunoturbidometry (WAKO chemicals, Richmond, Va., USA), Salicylate levels were assessed commercially using a colorimetric assay (Quest Laboratories, Cambridge, Mass., USA). Glycated albumin was evaluated with the use of a Hitachi 911 lipid and protein analyzer and kits from AsahiKasei (Tokyo, JP). Glycated albumin was calculated by determining (1) the colorimetric measurement of total, albumin; (2) partial enzymatic digestion of albumin at glycated sites; (3) re-assessment of albumin; (4) % glycated albumin=1-3.
The primary endpoint was change from, baseline in glycemic measures using between group comparisons. Secondary outcomes were also assessed as change from baseline within group. Data are presented as mean±standard error unless otherwise noted. Unpaired (salsalate vs. placebo) and paired (pre vs. post) Student t-tests were performed. Treatment effects were determined by calculating differences between baseline sad end of treatment values divided by the baseline value to determine a percent change for each participant. […]

[2] = tested on: overweight non-diabetic adults; assay: Insulin, C-peptide and HOMA-IR in double-masked placebo controlled trial; format: in vivo, human
From the text: as §1, §2, §3, §4
(§5) The primary endpoint was change from, baseline in glycemic measures using between group comparisons. Secondary outcomes were also assessed as change from baseline within group. Data are presented as mean±standard error unless otherwise noted. Unpaired (salsalate vs. placebo) and paired (pre vs. post) Student t-tests were performed. Treatment effects were determined by calculating differences between baseline sad end of treatment values divided by the baseline value to determine a percent change for each participant. Repeated measures of ANOVA and area under curve analyses were performed to compare response to oral glucose load before and after treatment. Only subjects completing the trial were included in data analysis. Results were considered significant with two-tailed p-values <0.05.

[3] = tested on: overweight non-diabetic adults; assay: Safety and tolerability in the trial
IKKβ/NF-κB = settings: cited from earlier work
[4] = tested on: overweight non-diabetic adults; assay: Cytokines, adipokines and inflammatory markers pre- and post-one month of therapy; format: in vivo, human
Method: as §1, §4, §5
To evaluate the proposed anti-inflammatory mechanism of action for improvement in glycemia, cytokines and adipokines were assessed pre- and post-one month of therapy in the same population described in Example 1.

[5] = over the one-month period, p>0.1
[6] = following one month of salsalate therapy

Structure (SMILES): O=C(Oc1ccccc1C(=O)O)c1ccccc1O [salsalate, 2-hydroxybenzoE acid, 2-carboxyphenyl ester]
- inhibition of cyclooxygenase enzymes compared to aspirin (cyclooxygenase enzymes): much weaker inhibitor
- fasting glucose compared to placebo (FIG. 1A) [1]: reduced
- glycated albumin compared to placebo (FIG. 1A) [1]: reduced
- post oral glucose challenge glucose area under the curve compared to placebo (FIG. 1A) [1]: reduced
- fasting plasma glucose level after treatment ([1]; after one month of salsalate, baseline 5.0±0.2, p<0.03): 4.6 ± 0.1 mmol/L
- glycated albumin after treatment ([1]; after one month of salsalate, baseline 12.4±0.4%, p<0.003): 10.3±0.3%
- reduction in glucose area under the curve during oral glucose tolerance testing ([1]; oral salsalate 4 g daily, one month, 75 g oral glucose, placebo increased by 6±3%, p=0.003): 14±5%
- reduction in fasting glucose, change from baseline ([1]; oral salsalate 4 g daily, one month, mean±SE, placebo increase of 5±2%, p<0.002): 8±4%
- reduction in glycated albumin, change from baseline ([1]; oral salsalate 4 g daily, one month, placebo 0.6±0.9%, p<0.002): 17±4%
- glycemia response to glucose load ([1]; within group, one month of salsalate, repeated measure analysis p<0.01): improvements in glycemia; also recorded: improved
- fasting C-peptide levels after treatment ([2]; after one month of salsalate, baseline 1.6±0.2, p=0.02): 1.1 ± 0.2 nmol/L
- reduction in C-peptide AUC post glucose challenge ([2]; one month of salsalate, placebo increase of 4±7%, p=0.02): 23±4%
- reduction in fasting C-peptide, change from baseline ([2]; one month of salsalate, placebo increase of 5±6%, p<0.01): 30±7%
- HOMA IRc peptide lowered by ([2]; one month of salsalate, placebo increased 9±5%, p=0.003): 35±8%
- HOMA-IR using insulin, post treatment ([2]; post one month of salsalate, pre 4.6±0.9, p=0.9, not significantly changed): 4.2±0.6
- fasting insulin values ([2]; pre vs post one month of salsalate): unchanged
- insulin levels following glucose challenge ([2]; pre- and post-salsalate, 75 g oral glucose): remained unchanged
- insulin sensitivity calculated by HOMA IRc-peptide (FIG. 2C) ([2]; salsalate compared to placebo): improvement
- C peptide response to Oral Glucose Tolerance Test calculated by AUC (FIG. 2C) ([2]; salsalate vs placebo): significant between group difference
- reduced dose tolerated without symptoms (individual participants) ([3]; actively treated participants after dose reduction): 3.5 grams per day and 3.0 grams per day
- participants with transient mild transaminitis at the final visit ([3]; actively treated, resolved spontaneously): two
- changes in anion gap ([3]; during the trial): no noted changes
- changes in laboratory analysis of electrolytes ([3]; during the trial): no noted changes
- changes in laboratory analysis of renal function ([3]; during the trial): no noted changes
- ALT/AST elevation in individual actively treated participants ([3]; final visit, resolved spontaneously): similarly mild elevation in both ALT and AST; also recorded: less than twice the upper range of normal
- participants requiring dose reduction due to complaints of tinnitus, headache or dizziness ([3]; initiated on 4.0 grams/day orally in two equal doses, on study medication): Two
- symptomatic hypoglycemia ([3]; one month, 4 g daily): No symptomatic hypoglycemia
- change in mean alanine aminotransferase (ALT) [3, 5]: no statistically significant change
- change in mean aspartate aminotransferase (AST) [3, 5]: no statistically significant change
- respiratory distress ([3]; participants with rash on active therapy): No respiratory distress
- participants withdrawn due to rash ([3]; received active therapy): three
- inhibition of IKKβ/NF-κB compared to aspirin (IKKβ/NF-κB): equipotent inhibitor
- adiponectin compared to placebo (FIG. 3A) [4]: increased significantly
- fasting non-esterified fatty acids (FFA) levels after treatment ([4]; after one month of salsalate, baseline 0.46±0.08, p=0.05): 0.25±0.05 mEq/L
- adiponectin after treatment ([4]; after one month of salsalate, baseline 10.6±1.7, p=0.01): 16.2 ± 2.7 mg/L
- CRT concentrations after treatment ([4]; after one month of salsalate, baseline 48.2±10.5, p=0.05): 30.2 ± 7.4 nmol/L
- II-6 [4, 6]: did not change significantly
- soluble VCAM-1 [4, 6]: did not change significantly
- adiponectin increase, change from baseline ([4]; one month of salsalate, placebo decreased 1±5%, p=0.003): 56±17%
- C-reactive protein (CRP) following treatment (FIG. 3B) ([4]; p<0.05): lower
- Free Fatty Acids (FFA) following treatment (FIG. 3B) ([4]; p<0.05): lower
